Measured values published in ChEMBL document CHEMBL1938312, “Design and combinatorial synthesis of a novel kinase-focused library using click chemistry-based fragment assembly” (Bioorg Med Chem Lett, 2012).
Activity calls are given as the source filed them. No cut-off for these calls is given here.

Columns and labels:
[1] = molecular target: Mitogen-activated protein kinase 14 (Homo sapiens) (UniProt Q16539); assay: Inhibition of p38alpha at 10 uM by colorimetric analysis
[2] = molecular target: Death-associated protein kinase 1 (Homo sapiens) (UniProt P53355); assay: Inhibition of DAPK1 at 10 uM by colorimetric analysis
Chain of Death-associated protein kinase 1 (Homo sapiens) (P53355 whole entry, looked up): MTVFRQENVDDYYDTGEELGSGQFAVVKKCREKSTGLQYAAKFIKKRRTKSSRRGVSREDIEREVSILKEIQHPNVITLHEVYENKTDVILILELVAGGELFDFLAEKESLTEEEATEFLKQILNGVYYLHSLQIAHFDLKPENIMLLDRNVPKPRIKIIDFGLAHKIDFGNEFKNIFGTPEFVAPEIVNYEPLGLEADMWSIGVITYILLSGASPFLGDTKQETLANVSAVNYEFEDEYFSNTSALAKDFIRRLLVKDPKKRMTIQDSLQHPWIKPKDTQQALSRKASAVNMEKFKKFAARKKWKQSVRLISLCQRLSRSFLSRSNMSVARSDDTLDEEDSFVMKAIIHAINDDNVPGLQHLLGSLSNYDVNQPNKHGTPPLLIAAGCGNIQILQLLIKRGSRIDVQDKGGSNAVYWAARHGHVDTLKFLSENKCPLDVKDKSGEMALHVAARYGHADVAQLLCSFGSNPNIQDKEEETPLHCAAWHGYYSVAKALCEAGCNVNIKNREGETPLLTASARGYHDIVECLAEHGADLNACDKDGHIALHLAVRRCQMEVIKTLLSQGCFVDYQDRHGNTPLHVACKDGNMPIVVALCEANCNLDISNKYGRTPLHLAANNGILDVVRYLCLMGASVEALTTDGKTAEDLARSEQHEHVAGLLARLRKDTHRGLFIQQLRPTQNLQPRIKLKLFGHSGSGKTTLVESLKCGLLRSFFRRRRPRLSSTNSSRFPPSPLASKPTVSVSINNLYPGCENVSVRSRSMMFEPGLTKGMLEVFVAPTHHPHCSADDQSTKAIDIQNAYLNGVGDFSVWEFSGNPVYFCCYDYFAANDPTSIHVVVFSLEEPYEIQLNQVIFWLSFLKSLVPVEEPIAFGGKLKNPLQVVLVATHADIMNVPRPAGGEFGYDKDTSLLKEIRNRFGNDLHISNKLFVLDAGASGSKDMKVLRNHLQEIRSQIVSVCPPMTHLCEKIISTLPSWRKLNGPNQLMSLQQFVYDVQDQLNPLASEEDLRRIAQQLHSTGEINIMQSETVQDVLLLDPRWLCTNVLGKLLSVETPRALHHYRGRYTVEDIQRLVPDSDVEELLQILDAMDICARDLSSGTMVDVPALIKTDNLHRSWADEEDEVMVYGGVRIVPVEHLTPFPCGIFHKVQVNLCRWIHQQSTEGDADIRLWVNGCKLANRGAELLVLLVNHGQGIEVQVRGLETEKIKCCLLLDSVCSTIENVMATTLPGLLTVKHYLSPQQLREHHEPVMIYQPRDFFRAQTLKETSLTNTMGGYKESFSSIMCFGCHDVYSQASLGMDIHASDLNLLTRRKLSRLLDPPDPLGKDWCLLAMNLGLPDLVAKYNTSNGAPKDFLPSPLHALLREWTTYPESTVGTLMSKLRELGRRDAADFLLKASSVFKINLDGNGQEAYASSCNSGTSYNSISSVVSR

[3] = molecular target: T1, Inhibitor of nuclear factor kappa-B kinase subunit beta (Homo sapiens) (UniProt O14920); assay: Inhibition of IKK-beta at 10 uM by colorimetric analysis
T1 sequence (whole entry): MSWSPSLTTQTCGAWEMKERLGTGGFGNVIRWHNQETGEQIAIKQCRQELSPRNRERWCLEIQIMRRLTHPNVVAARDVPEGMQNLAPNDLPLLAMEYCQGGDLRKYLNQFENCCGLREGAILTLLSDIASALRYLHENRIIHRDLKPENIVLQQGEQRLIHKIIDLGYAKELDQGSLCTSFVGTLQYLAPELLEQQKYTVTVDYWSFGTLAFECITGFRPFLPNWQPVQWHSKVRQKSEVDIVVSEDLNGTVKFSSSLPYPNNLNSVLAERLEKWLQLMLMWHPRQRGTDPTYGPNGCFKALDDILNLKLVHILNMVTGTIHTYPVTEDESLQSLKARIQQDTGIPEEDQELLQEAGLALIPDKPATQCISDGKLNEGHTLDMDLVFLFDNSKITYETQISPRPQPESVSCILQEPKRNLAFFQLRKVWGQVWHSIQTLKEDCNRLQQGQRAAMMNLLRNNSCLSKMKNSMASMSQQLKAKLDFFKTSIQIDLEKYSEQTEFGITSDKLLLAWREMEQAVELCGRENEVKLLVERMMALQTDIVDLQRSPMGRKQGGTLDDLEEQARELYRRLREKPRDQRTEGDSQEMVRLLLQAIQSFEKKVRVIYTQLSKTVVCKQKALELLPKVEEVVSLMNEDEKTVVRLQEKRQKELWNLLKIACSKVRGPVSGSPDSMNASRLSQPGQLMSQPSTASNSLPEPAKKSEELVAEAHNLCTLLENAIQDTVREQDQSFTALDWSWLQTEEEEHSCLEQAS

[4] = molecular target: Ephrin type-A receptor 2 (Homo sapiens) (UniProt P29317); assay: Inhibition of EPHA2 at 10 uM by colorimetric analysis
Chain of Ephrin type-A receptor 2 (Homo sapiens) (P29317 whole entry): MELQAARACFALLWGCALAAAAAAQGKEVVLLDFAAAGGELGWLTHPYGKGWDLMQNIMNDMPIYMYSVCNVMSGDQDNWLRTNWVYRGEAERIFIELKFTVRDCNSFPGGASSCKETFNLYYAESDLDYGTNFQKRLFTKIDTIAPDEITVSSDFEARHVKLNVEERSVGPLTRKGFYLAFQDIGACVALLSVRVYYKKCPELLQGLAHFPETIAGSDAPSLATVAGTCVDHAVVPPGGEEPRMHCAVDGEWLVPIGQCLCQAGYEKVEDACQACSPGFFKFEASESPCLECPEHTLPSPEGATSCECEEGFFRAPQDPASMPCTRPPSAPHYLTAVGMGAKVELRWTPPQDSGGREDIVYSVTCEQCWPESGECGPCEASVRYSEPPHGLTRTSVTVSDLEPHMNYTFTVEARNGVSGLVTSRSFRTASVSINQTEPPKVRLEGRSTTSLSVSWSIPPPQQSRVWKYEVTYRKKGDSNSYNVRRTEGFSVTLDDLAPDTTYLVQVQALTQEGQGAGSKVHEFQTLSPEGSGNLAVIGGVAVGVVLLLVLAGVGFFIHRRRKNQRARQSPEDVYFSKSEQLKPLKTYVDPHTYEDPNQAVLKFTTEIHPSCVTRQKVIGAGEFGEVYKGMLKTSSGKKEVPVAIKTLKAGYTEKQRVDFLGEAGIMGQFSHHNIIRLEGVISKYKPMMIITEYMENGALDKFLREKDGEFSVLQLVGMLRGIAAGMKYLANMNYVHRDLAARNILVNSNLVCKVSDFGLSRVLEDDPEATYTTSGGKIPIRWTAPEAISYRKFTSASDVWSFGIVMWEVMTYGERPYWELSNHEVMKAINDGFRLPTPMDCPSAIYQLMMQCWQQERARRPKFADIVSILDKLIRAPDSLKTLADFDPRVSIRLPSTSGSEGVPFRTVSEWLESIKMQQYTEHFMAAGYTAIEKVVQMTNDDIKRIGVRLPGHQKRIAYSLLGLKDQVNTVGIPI

[5] = molecular target: Protein kinase C alpha type (Homo sapiens) (UniProt P17252); assay: Inhibition of PKCalpha at 10 uM by colorimetric analysis
[6] = molecular target: Glycogen synthase kinase-3 beta (Homo sapiens, UniProt P49841); assay: Inhibition of GSK3-beta by colorimetric analysis
Chain of Glycogen synthase kinase-3 beta (P49841 whole entry): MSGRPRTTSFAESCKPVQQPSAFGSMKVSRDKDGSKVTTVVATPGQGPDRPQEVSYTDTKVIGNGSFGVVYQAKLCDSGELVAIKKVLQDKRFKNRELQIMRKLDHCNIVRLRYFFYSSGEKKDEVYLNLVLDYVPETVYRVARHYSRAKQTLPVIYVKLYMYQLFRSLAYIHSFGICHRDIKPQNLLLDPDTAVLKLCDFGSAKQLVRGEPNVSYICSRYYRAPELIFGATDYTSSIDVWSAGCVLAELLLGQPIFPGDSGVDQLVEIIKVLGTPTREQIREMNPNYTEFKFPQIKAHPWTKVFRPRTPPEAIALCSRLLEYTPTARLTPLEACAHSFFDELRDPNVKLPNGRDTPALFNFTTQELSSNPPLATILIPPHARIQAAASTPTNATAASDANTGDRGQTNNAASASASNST

Chain of Mitogen-activated protein kinase 14 (Homo sapiens) (Q16539 whole entry): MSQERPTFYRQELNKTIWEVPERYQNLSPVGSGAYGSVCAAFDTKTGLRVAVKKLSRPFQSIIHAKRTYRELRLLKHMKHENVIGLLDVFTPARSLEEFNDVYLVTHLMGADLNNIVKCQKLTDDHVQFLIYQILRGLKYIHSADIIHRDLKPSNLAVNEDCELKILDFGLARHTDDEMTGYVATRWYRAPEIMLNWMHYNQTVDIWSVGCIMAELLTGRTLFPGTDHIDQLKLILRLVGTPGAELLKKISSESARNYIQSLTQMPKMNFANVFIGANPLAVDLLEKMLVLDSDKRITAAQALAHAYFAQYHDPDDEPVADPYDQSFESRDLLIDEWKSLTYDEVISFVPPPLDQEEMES

inhibition [1]	inhibition [3]	inhibition [4]	inhibition [5]	IC50 [6] [nM]	SMILES	inhibition [2]
Active	Active	inactive	Active	–	Clc1cccc(-n2nncc2-c2ccncc2)c1	Active
Active	Active	inactive	Active	–	Clc1ccc(-n2nncc2-c2ccncc2)cc1	Active
Active	Active	inactive	Active	1800	Clc1cccc(-n2cc(-c3ccncc3)nn2)c1	Active
Active	Active	inactive	Active	1100	Clc1ccc(-n2cc(-c3ccncc3)nn2)cc1	Active
